Measurements from PMC7369637, “Inhibition of Resistance-Refractory P. falciparum Kinase PKG Delivers Prophylactic, Blood Stage, and Transmission-Blocking Antiplasmodial Activity” (Cell Chemical Biology, 2020).

Key:
casein kinase 1δ = biological target: T1, casein kinase 1δ (Homo sapiens, UniProt P48730); test: Chemoproteomics in human mixed tissue extracts; type: binding; conditions: read-out: Kdapp
T1 construct: human cell/tissue protein extract (a mixture of HEK-293, K-562, Hep G2 , and placental cells); endogenous in cells; host or cells: mixture of HEK-293, K-562, Hep G2 and placenta
Procedure: (§1) Human extracts were prepared as described ([Bantscheff et al., 2011]). Briefly, frozen cell pellets were homogenized in lysis buffer (50 mM Tris-HCl, 0.8% Igepal-CA630, 5% glycerol, 150 mM NaCl, 1.5 mM MgCl2, 25 mM sodium fluoride, 1 mM sodium vanadate, 1 mM DTT, pH 7.5). One cOmplete EDTA-free protease inhibitor tablet (Roche) was added per 25 ml. Samples were dispersed using a Dounce homogenizer, rotated for 30 min at 4°C, and centrifuged at 20,000g for 10 min at 4°C. Supernatants were then recentrifuged at 145,000g for 1 h at 4°C. Protein concentrations were determined using a Bradford assay (BioRad). Aliquots were snap frozen in liquid nitrogen and stored at −80°C.
(§2) Kinobeads were prepared by immobilizing Bis-(III) indolyl-maleimide, purvalanol B, staurosporine and CZC8004, and the analogs of PD173955, sunitinib and vandetanib on NHS-activated Sepharose 4 beads (Amersham) ([Bantscheff et al., 2007]). […] The chemoproteomic affinity-capturing experiments were performed as previously described ([Bantscheff et al., 2011]). Briefly, beads were washed and equilibrated in lysis buffer (50 mM Tris-HCl, pH 7.4, 0.4 % Igepal-CA630, 1.5 mM MgCl2, 5 % Glycerol, 150 mM NaCl, 25 mM NaF, 1 mM Na3VO4, 1 mM DTT, and one cOmplete EDTA-free protease inhibitor tablet (Roche) per 25 mL). The beads were incubated at 4°C for 1 h with either 0.1 ml (0.3 mg) Pf blood stage extract or 0.5 mL (2.5 mg) human cell/tissue protein extract (a mixture of HEK-293, K-562, Hep G2 , and placental cells), which was pre-incubated with compound or DMSO (vehicle control). 10 samples were measured in parallel (TMT 10-plex ([Werner et al., 2014])) to generate values for the affinity of the beads to the bound proteins (“depletion” values, 4 samples) and to generate IC50 values (6 samples) in a single experiment. Apparent dissociation constants were determined after accounting for protein depletion by the beads ([Bantscheff et al., 2011]). Beads were transferred to Filter plates (Durapore PVDF membrane, Merck Millipore), washed with lysis buffer, and eluted with SDS sample buffer.
(§3) Proteins were digested according to a modified single pot solid-phase sample preparation (SP3) protocol ([Hughes et al., 2014]). Peptides were labeled with isobaric mass tags (Thermo Fisher Scientific, Waltham, MA) using 10-plex TMT reagents, enabling relative quantification of 10 conditions in a single experiment ([Werner et al., 2014]). The labeling reactions and LC-MS/MS measurements using Q Exactive Orbitrap or Orbitrap Fusion Lumos mass spectrometers (Thermo Fisher Scientific) were performed as described elsewhere ([Sridharan et al., 2019]). Mascot 2.4 (Matrix Science, Boston, MA) was used for protein identification by using a 10 parts per million mass tolerance for peptide precursors and 20 mD (HCD) mass tolerance for fragment ions. To create the fasta file for mascot searching, all proteins corresponding to the taxonomy ‘Plasmodium falciparum (isolate 3D7)’ were downloaded from Uniprot (release 20170621) and supplemented with common contaminant protein sequences of bovine serum albumin, porcine trypsin and mouse, rat, sheep and dog keratins. To assess the false discovery rate (FDR), “decoy” proteins (reverse of all protein sequences) were created and added to the database, resulting in a database containing a total of 14266 protein sequences, with 50% forward and 50% reverse. For peptide and protein identification of human proteins see ([Sridharan et al., 2019]). Unless stated otherwise, we accepted protein identifications as follows: (i) For single-spectrum to sequence assignments, we required this assignment to be the best match and a minimum Mascot score of 31 and a 10× difference of this assignment over the next best assignment. Based on these criteria, the decoy search results indicated <1% false discovery rate (FDR). (ii) For multiple spectrum to sequence assignments and using the same parameters, the decoy search results indicated <0.1% FDR. […]

protein kinase N3 = biological target: T2, protein kinase N3 (Homo sapiens, UniProt Q6P5Z2); test: Chemoproteomics in human mixed tissue extracts; type: binding; conditions: read-out: Kdapp
T2 construct: human cell/tissue protein extract (a mixture of HEK-293, K-562, Hep G2 , and placental cells); endogenous in cells; host or cells: mixture of HEK-293, K-562, Hep G2 and placenta
Procedure: as §1, §2, §3

[1] = biological target: T3, transforming growth factor β receptor 2 (Homo sapiens, UniProt P37173); test: Chemoproteomics in human mixed tissue extracts; type: binding; conditions: read-out: Kdapp
T3 construct: human cell/tissue protein extract (a mixture of HEK-293, K-562, Hep G2 , and placental cells); endogenous in cells; host or cells: mixture of HEK-293, K-562, Hep G2 and placenta
Procedure: as §1, §2, §3

[2] = biological target: T4, testis-associated actin remodeling kinase 2 (Homo sapiens, UniProt Q96S53); test: Chemoproteomics in human mixed tissue extracts; type: binding; conditions: read-out: Kdapp
T4 construct: human cell/tissue protein extract (a mixture of HEK-293, K-562, Hep G2 , and placental cells); endogenous in cells; host or cells: mixture of HEK-293, K-562, Hep G2 and placenta
Procedure: as §1, §2, §3

[3] = biological target: T5, receptor interacting serine/threonine kinase 2 (Homo sapiens, UniProt O43353); test: Chemoproteomics in human mixed tissue extracts; type: binding; conditions: read-out: Kdapp
T5 construct: human cell/tissue protein extract (a mixture of HEK-293, K-562, Hep G2 , and placental cells); endogenous in cells; host or cells: mixture of HEK-293, K-562, Hep G2 and placenta
Procedure: as §1, §2, §3

[4] = biological target: T6, transforming growth factor β receptor 1 (Homo sapiens, UniProt P36897); test: Chemoproteomics in human mixed tissue extracts; type: binding; conditions: read-out: Kdapp
T6 construct: human cell/tissue protein extract (a mixture of HEK-293, K-562, Hep G2 , and placental cells); endogenous in cells; host or cells: mixture of HEK-293, K-562, Hep G2 and placenta
Procedure: as §1, §2, §3

nemo-like kinase = biological target: T7, nemo-like kinase (Homo sapiens, UniProt Q9UBE8); test: Chemoproteomics in human mixed tissue extracts; type: binding; conditions: read-out: Kdapp
T7 construct: human cell/tissue protein extract (a mixture of HEK-293, K-562, Hep G2 , and placental cells); endogenous in cells; host or cells: mixture of HEK-293, K-562, Hep G2 and placenta
Procedure: as §1, §2, §3

[5] = tested on: Dd2-B2 and ed. Dd2-B2 TKL3KO parasites; test: In vitro selections for MMV030084 resistance; type: cell-based, Plasmodium falciparum; conditions: 1 × 10^9 Dd2-B2 TKL3KO parasites, 1,100 nM
Procedure: (§4) The resulting MMV030084-resistant parasites were cloned by limiting dilution ([Baker et al., 2017]) to obtain genetically homogenous cultures for further phenotyping and whole-genome sequencing. A second round of […]. […] Drug susceptibility of resistant lines was assessed using a 72 h ABS assay as described above, and a Mann Whitney U test was applied to assess statistically significant differences.

[6] = biological target: T8, human protein extracts (Mixed: HEK-293/ K-562/ Placenta/ Hep G2) (Homo sapiens, UniProt Q7L576); test: Chemoproteomic profiling, MS/MS data for all quantified proteins (Table S1 E3); type: binding
T8 construct: endogenous in cells; host or cells: mixture of HEK-293, K-562, Hep G2 and placenta
Procedure: as §1
(§5) Kinobeads were prepared by immobilizing Bis-(III) indolyl-maleimide, purvalanol B, staurosporine and CZC8004, and the analogs of PD173955, sunitinib and vandetanib on NHS-activated Sepharose 4 beads (Amersham) ([Bantscheff et al., 2007]). […] The chemoproteomic affinity-capturing experiments were performed as previously described ([Bantscheff et al., 2011]). Briefly, beads were washed and equilibrated in lysis buffer (50 mM Tris-HCl, pH 7.4, 0.4 % Igepal-CA630, 1.5 mM MgCl2, 5 % Glycerol, 150 mM NaCl, 25 mM NaF, 1 mM Na3VO4, 1 mM DTT, and one cOmplete EDTA-free protease inhibitor tablet (Roche) per 25 mL). […] 10 samples were measured in parallel (TMT 10-plex ([Werner et al., 2014])) to generate values for the affinity of the beads to the bound proteins (“depletion” values, 4 samples) and to generate IC50 values (6 samples) in a single experiment. Apparent dissociation constants were determined after accounting for protein depletion by the beads ([Bantscheff et al., 2011]). […]
(§6) Proteins were digested according to a modified single pot solid-phase sample preparation (SP3) protocol ([Hughes et al., 2014]). Peptides were labeled with isobaric mass tags (Thermo Fisher Scientific, Waltham, MA) using 10-plex TMT reagents, enabling relative quantification of 10 conditions in a single experiment ([Werner et al., 2014]). […]

[7] = biological target: T9, human protein extracts (Mixed: HEK-293/ K-562/ Placenta/ Hep G2) (Homo sapiens, UniProt P21127); test: as above; type: binding
T9 construct: endogenous in cells; host or cells: mixture of HEK-293, K-562, Hep G2 and placenta
Procedure: as §1, §5, §6

female gamete formation = conditions: ref Miguel-Blanco et al., 2017; cited from earlier work
[8] = tested on: Dd2-B2 TKL3KO parasites with PP1 H237D/V249L or URP E20* mutations; test: 72-h ABS assay, lines pulse-selected from ed. Dd2-B2 TKL3KO; type: cell-based; conditions: Plasmodium falciparum, parent ed. Dd2-B2 TKL3KO
Procedure: Synchronicity was achieved using three rounds of sorbitol treatment on early rings, spaced 48 h apart, followed by magnetic purification of segmented schizonts following the final sorbitol treatment. Parasites were highly synchronous to within a 3 h window of development. Assays were repeated on at least three independent occasions (each with technical duplicates) and statistical significance was assessed using Mann Whitney U tests.
as §4

T9 sequence (P21127 whole entry): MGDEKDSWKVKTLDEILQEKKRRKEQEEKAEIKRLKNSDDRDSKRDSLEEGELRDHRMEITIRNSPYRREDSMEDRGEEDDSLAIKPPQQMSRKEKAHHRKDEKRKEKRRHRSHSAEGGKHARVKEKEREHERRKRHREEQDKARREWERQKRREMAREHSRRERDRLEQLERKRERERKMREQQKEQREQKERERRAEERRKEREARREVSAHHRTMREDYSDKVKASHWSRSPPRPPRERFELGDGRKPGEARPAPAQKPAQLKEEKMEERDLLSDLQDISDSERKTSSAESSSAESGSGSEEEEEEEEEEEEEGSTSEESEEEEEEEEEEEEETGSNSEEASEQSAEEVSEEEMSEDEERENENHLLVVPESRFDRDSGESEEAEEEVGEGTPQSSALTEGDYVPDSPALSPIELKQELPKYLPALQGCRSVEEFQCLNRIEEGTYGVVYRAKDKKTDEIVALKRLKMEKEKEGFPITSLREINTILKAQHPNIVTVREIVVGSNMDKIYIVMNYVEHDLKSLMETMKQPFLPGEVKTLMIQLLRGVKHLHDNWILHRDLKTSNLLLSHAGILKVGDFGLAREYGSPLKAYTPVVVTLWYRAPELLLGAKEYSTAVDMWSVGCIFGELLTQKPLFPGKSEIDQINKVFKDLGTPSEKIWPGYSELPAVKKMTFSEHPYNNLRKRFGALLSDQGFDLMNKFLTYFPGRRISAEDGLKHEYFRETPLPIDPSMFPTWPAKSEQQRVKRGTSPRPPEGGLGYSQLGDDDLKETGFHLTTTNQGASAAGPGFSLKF
T2 sequence (Q6P5Z2 whole entry): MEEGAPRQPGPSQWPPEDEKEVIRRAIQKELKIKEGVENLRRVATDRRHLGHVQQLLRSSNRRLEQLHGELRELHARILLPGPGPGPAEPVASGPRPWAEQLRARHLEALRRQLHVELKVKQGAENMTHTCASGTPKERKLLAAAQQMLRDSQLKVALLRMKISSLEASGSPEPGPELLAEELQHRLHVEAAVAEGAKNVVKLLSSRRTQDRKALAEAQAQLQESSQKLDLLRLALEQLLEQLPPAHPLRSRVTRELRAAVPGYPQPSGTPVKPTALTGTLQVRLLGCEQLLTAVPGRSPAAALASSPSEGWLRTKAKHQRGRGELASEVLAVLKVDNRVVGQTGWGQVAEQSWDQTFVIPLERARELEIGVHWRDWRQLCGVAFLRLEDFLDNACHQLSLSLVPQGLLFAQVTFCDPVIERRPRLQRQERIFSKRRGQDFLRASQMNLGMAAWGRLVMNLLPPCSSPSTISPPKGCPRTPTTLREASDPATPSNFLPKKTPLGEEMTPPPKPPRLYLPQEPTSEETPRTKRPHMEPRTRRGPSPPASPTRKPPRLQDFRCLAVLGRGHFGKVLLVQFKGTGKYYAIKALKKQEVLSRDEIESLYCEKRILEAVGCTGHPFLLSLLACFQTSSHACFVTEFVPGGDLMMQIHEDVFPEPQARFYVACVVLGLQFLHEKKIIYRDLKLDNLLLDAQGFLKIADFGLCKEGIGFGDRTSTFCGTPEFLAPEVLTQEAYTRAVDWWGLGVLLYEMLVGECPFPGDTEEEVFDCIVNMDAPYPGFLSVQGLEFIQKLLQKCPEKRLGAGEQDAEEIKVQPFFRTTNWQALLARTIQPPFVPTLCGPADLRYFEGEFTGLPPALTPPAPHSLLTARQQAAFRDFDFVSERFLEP
T1 sequence (P48730 whole entry): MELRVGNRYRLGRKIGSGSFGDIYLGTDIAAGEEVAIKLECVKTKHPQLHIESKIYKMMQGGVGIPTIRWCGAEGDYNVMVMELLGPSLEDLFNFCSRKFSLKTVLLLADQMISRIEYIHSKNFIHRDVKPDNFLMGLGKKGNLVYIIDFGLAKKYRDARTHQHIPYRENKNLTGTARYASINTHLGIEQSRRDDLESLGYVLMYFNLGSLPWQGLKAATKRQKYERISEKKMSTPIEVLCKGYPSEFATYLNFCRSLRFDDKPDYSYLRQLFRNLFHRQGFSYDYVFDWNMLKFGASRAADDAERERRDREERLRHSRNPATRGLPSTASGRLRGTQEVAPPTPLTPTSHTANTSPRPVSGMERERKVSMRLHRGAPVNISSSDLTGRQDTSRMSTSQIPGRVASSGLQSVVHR
T6 sequence (P36897 34-503): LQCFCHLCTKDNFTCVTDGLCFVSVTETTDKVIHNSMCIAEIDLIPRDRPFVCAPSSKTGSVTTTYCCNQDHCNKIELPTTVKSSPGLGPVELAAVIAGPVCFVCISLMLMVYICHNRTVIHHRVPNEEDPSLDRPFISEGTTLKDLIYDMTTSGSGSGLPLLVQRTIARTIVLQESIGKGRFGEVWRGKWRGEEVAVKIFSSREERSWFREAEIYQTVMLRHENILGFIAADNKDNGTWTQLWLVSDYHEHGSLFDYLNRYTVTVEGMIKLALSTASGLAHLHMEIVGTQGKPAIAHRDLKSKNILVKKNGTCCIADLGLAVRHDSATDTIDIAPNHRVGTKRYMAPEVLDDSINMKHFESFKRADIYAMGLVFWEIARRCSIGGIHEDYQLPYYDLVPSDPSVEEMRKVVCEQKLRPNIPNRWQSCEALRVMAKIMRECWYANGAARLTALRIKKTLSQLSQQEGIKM
T7 sequence (Q9UBE8 whole entry): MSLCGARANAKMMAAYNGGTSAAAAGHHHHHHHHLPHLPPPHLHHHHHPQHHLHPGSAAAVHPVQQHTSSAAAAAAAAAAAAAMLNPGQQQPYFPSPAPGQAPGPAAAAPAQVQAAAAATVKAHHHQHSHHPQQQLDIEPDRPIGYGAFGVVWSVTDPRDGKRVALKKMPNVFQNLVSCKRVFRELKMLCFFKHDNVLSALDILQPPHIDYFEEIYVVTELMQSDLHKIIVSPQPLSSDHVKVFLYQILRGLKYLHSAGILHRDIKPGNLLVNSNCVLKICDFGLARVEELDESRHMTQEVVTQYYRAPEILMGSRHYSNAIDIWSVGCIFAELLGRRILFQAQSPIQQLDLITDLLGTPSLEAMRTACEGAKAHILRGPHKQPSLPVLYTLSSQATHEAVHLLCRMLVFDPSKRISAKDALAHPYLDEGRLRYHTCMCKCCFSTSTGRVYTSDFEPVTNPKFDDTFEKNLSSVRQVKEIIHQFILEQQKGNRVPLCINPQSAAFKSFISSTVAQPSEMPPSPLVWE
T5 sequence (O43353 whole entry): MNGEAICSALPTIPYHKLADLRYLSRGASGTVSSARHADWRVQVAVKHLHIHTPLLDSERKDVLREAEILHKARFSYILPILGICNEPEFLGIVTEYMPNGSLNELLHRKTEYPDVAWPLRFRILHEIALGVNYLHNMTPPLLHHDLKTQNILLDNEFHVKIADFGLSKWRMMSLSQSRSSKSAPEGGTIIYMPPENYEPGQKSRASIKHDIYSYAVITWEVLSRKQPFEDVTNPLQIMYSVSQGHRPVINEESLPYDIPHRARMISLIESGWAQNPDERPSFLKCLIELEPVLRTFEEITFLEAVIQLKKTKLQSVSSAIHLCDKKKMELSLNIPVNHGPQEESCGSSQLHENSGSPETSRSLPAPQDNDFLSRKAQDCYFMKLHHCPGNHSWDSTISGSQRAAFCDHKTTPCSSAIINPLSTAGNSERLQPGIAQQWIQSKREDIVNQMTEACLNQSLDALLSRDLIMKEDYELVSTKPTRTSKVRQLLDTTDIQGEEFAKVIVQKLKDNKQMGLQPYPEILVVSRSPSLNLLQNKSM
T3 sequence (P37173 23-567): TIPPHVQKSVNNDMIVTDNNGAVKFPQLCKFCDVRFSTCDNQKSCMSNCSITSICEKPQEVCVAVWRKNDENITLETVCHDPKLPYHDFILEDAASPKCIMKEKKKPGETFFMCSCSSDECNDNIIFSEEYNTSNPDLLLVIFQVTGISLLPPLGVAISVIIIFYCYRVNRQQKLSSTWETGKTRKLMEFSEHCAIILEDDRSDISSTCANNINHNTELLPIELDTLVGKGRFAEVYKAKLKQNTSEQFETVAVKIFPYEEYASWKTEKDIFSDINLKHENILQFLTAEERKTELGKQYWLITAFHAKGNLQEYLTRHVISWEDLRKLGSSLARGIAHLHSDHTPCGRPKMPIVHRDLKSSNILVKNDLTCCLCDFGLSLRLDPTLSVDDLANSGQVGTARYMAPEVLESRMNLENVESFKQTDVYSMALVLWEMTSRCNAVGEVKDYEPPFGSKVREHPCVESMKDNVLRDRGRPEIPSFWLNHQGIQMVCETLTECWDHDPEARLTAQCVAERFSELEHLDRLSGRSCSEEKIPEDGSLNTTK
T4 sequence (Q96S53 whole entry): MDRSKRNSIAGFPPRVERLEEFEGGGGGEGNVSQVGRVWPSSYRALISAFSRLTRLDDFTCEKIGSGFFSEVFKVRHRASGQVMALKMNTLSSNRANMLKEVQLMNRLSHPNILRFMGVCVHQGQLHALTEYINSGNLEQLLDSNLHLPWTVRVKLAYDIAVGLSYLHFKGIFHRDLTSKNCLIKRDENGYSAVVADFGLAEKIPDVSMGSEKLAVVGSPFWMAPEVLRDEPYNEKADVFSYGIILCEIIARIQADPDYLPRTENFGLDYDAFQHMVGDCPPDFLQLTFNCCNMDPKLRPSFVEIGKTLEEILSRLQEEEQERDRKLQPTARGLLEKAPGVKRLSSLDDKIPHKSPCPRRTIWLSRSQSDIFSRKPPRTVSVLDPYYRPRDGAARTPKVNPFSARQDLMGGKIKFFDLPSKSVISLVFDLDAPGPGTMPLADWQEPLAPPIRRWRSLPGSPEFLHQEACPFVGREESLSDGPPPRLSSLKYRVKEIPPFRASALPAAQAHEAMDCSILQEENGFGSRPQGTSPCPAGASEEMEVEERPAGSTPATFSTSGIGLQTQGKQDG

`CC(C)(CN)c1nc(-c2ccc(Cl)c(O)c2)c(-c2ccncc2)[nH]1` [MMV030084] gave a Kd (casein kinase 1δ) of 95 nM, a Kd (protein kinase N3) of 8.5 nM and a Kd [1] of 35 nM. For the same molecule, the Kd [2] was 25 nM, the Kd [3] was 4.5 nM and the Kd [4] was 20 nM. The Kd (nemo-like kinase) was 20 nM, the “Parasite recrudescence under continuous exposure” value [5] was “did not result in parasite recrudescence” and the IC50 [6] was ≥ 30000 nM. The IC50 [7] was ≥ 30000 nM, the “Inhibition of female gamete formation” value (female gamete formation) was “inhibitors of female gamete formation” and the IC50 ([8]; DD2, Line sel. Dd2-B2 TKL3KO + PP1H237D) was 621 nM. It also gave an IC50 ([8]; DD2, Line sel. Dd2-B2 TKL3KO + PP1V249L) of 549 nM and an IC50 ([8]; DD2, Line sel. Dd2-B2 TKL3KO + URPE20*) of 819 nM.
